Reference: PubChem BioAssay AID1963856 (Molecular Pharmacology Branch, DTP, NCI, 2024)

Tested on: LG0567-F671-PDC KRAS tumor spheroid viability
Assay: Anticancer human tumor LG0567-F671-PDC patient-derived lung adenocarcinoma cell line growth inhibition [KRAS2]
Conditions: spheroids with HUVEC and MSC; for IC50: curve of first compound; for viability, T/C: stronger effect = lower value
Method in brief: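 KRAS-mutant tumor cells were grown as spheroids with HUVEC endothelial cells and human MSCs as stroma. Targeted agents were tested alone and with KRAS pathway inhibitors. Doses started at or near clinical Cmax, or 10 microM, descending half-log.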

[1] = second compound 0.1 µM, first compound 0.00316 µM
[2] = second compound 0.1 µM, first compound 0.01 µM
[3] = second compound 0.1 µM, first compound 0.0316 µM
[4] = second compound 0.1 µM, first compound 0.1 µM
[5] = second compound 0.1 µM, first compound 0.316 µM
[6] = second compound 0.1 µM, first compound 1 µM
[7] = second compound 0.316 µM, first compound 0.00316 µM
[8] = second compound 0.316 µM, first compound 0.01 µM
[9] = second compound 0.316 µM, first compound 0.0316 µM
[10] = second compound 0.316 µM, first compound 0.1 µM
[11] = second compound 0.316 µM, first compound 0.316 µM
[12] = second compound 0.316 µM, first compound 1 µM
[13] = second compound 1 µM, first compound 0.00316 µM
[14] = second compound 1 µM, first compound 0.01 µM
[15] = second compound 1 µM, first compound 0.0316 µM
[16] = second compound 1 µM, first compound 0.1 µM
[17] = second compound 1 µM, first compound 0.316 µM
[18] = second compound 1 µM, first compound 1 µM
[19] = second compound 3.16 µM, first compound 0.00316 µM
[20] = second compound 3.16 µM, first compound 0.01 µM
[21] = second compound 3.16 µM, first compound 0.0316 µM
[22] = second compound 3.16 µM, first compound 0.1 µM
[23] = second compound 3.16 µM, first compound 0.316 µM
[24] = second compound 3.16 µM, first compound 1 µM
[25] = second compound 10 µM, first compound 0.00316 µM
[26] = second compound 10 µM, first compound 0.01 µM
[27] = second compound 10 µM, first compound 0.0316 µM
[28] = second compound 10 µM, first compound 0.1 µM
[29] = second compound 10 µM, first compound 0.316 µM
[30] = second compound 10 µM, first compound 1 µM
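Also: drug exposure lasted seven days after spheroids formed for three days.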
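For viability, T/C in this document: 100% = DMSO vehicle control viability.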

Structure (SMILES): CCN1CCN(Cc2ccc(Nc3ncc(F)c(-c4cc(F)c5nc(C)n(C(C)C)c5c4)n3)nc2)CC1 + CNCc1ccccc1-c1csc(C(C)Nc2nc(C)nc3cc(OC)c(OC)cc23)c1
- IC50 (second compound 0.1 µM): 493 nM
- IC50 (second compound 0.316 µM): 68.2 nM
- IC50 (second compound 1 µM): 6.43 nM
- IC50 (second compound 3.16 µM): 13.7 nM
- IC50 (second compound 10 µM): < 3.16 nM
- viability, T/C [1]: 78%
- viability, T/C [2]: 76.3%
- viability, T/C [3]: 65%
- viability, T/C [4]: 62.6%
- viability, T/C [5]: 50.1%
- viability, T/C [6]: 47.3%
- viability, T/C [7]: 77.2%
- viability, T/C [8]: 60.5%
- viability, T/C [9]: 51.1%
- viability, T/C [10]: 54.8%
- viability, T/C [11]: 43.8%
- viability, T/C [12]: 42%
- viability, T/C [13]: 52%
- viability, T/C [14]: 50.5%
- viability, T/C [15]: 44.3%
- viability, T/C [16]: 37.8%
- viability, T/C [17]: 39.9%
- viability, T/C [18]: 33.9%
- viability, T/C [19]: 60.6%
- viability, T/C [20]: 74.2%
- viability, T/C [21]: 0.63%
- viability, T/C [22]: 11.6%
- viability, T/C [23]: 3.01%
- viability, T/C [24]: 0.17%
- viability, T/C [25]: 0.18%
- viability, T/C [26]: 0.15%
- viability, T/C [27]: 0.13%
- viability, T/C [28]: 0.12%
- viability, T/C [29]: 0.13%
- viability, T/C [30]: 0.18%

Structure (SMILES): CC(C)n1nc(-c2ccc3oc(N)nc3c2)c2c(N)ncnc21 + CNCc1ccccc1-c1csc(C(C)Nc2nc(C)nc3cc(OC)c(OC)cc23)c1
- IC50 (second compound 0.1 µM): 58.7 nM
- IC50 (second compound 0.316 µM): 10.7 nM
- IC50 (second compound 1 µM): 5.7 nM
- IC50 (second compound 3.16 µM): < 0.316 nM
- IC50 (second compound 10 µM): < 0.316 nM
- viability, T/C (second compound 0.1 µM, first compound 0.000316 µM): 72.7%
- viability, T/C (second compound 0.1 µM, first compound 0.001 µM): 76.2%
- viability, T/C [1]: 65.5%
- viability, T/C [2]: 58.6%
- viability, T/C [3]: 53.8%
- viability, T/C [4]: 47.3%
- viability, T/C (second compound 0.316 µM, first compound 0.000316 µM): 70.3%
- viability, T/C (second compound 0.316 µM, first compound 0.001 µM): 65.5%
- viability, T/C [7]: 59%
- viability, T/C [8]: 49%
- viability, T/C [9]: 42.6%
- viability, T/C [10]: 37.4%
- viability, T/C (second compound 1 µM, first compound 0.000316 µM): 70.8%
- viability, T/C (second compound 1 µM, first compound 0.001 µM): 73.6%
- viability, T/C [13]: 52.5%
- viability, T/C [14]: 44.5%
- viability, T/C [15]: 32.1%
- viability, T/C [16]: 23.2%
- viability, T/C (second compound 3.16 µM, first compound 0.000316 µM): 0.52%
- viability, T/C (second compound 3.16 µM, first compound 0.001 µM): 1.53%
- viability, T/C [19]: 2.23%
- viability, T/C [20]: 0.27%
- viability, T/C [21]: 10.3%
- viability, T/C [22]: 6%
- viability, T/C (second compound 10 µM, first compound 0.000316 µM): 1.29%
- viability, T/C (second compound 10 µM, first compound 0.001 µM): 0.51%
- viability, T/C [25]: 0.14%
- viability, T/C [26]: 1.07%
- viability, T/C [27]: 10.9%
- viability, T/C [28]: 0.33%

Structure (SMILES): COc1cc2nccc(Oc3ccc(NC(=O)C4(C(=O)Nc5ccc(F)cc5)CC4)cc3)c2cc1OC + COc1cc2nc(C)nc(NC(C)c3cc(N)cc(C(F)(F)F)c3)c2cc1OC1CCOC1
- IC50 (second compound 0.1 µM): > 10000 nM
- IC50 (second compound 0.316 µM): < 31.6 nM
- IC50 (second compound 1 µM): < 31.6 nM
- IC50 (second compound 3.16 µM): 204 nM
- IC50 (second compound 10 µM): 175 nM
- viability, T/C [3]: 78.6%
- viability, T/C [4]: 71.5%
- viability, T/C [5]: 56.5%
- viability, T/C [6]: 32.8%
- viability, T/C (second compound 0.1 µM, first compound 3.16 µM): 101%
- viability, T/C (second compound 0.1 µM, first compound 10 µM): 95.6%
- viability, T/C [9]: 61.5%
- viability, T/C [10]: 58.6%
- viability, T/C [11]: 45.4%
- viability, T/C [12]: 25.6%
- viability, T/C (second compound 0.316 µM, first compound 3.16 µM): 87.3%
- viability, T/C (second compound 0.316 µM, first compound 10 µM): 74%
- viability, T/C [15]: 43.8%
- viability, T/C [16]: 53%
- viability, T/C [17]: 42.7%
- viability, T/C [18]: 20.9%
- viability, T/C (second compound 1 µM, first compound 3.16 µM): 79.8%
- viability, T/C (second compound 1 µM, first compound 10 µM): 53.3%
- viability, T/C [21]: 63.7%
- viability, T/C [22]: 62%
- viability, T/C [23]: 42.1%
- viability, T/C [24]: 24.8%
- viability, T/C (second compound 3.16 µM, first compound 3.16 µM): 9.35%
- viability, T/C (second compound 3.16 µM, first compound 10 µM): 72.6%
- viability, T/C [27]: 71.7%
- viability, T/C [28]: 54.2%
- viability, T/C [29]: 49.2%
- viability, T/C [30]: 37.4%
- viability, T/C (second compound 10 µM, first compound 3.16 µM): 1.24%
- viability, T/C (second compound 10 µM, first compound 10 µM): 78.7%
